Data taken from PMC7024208, “In Silico and In Vitro Experimental Studies of New Dibenz[b,e]oxepin-11(6H)one O-(arylcarbamoyl)-oximes Designed as Potential Antimicrobial Agents” (Molecules, 2020).
Converted amounts (≈) assume the structure as drawn. Read-outs that look alike come from different tables or passages of the source.

Key:
E. coli ATCC 25922 [1] = assay: MIC by liquid medium microdilution; format: cell-based; settings: Escherichia coli
Method: (§1) The antimicrobial activities of the synthesized compounds were determined against ATCC reference and clinical microbial strains, i.e., Bacillus subtilis ATCC 6633, Staphylococcus aureus ATCC 25923, Escherichia coli ATCC 25922, Klebsiella pneumoniae 350, Pseudomonas aeruginosa 1671 and Candida albicans ATCC 10231, using as positive controls the antibiotic ticarcillin and the antifungal agent fluconazole. Microbial suspensions of 1.5 × 10^8 CFU/mL corresponding to 0.5 McFarland density obtained from 15–18 h bacterial cultures developed on solid media were used in our experiments. The antimicrobial activity was tested on Mueller-Hinton Agar (MHA) medium, while a Yeast Peptone Glucose (YPG) medium was used in case of C. albicans. The obtained compounds were solubilized in DMSO and the starting stock solution was of 5000 μg/mL concentration. The qualitative screening was performed by an adapted disk diffusion method as previously reported.
(§2) The quantitative assay of the antimicrobial activity was performed by the liquid medium microdilution method, in 96 multi-well plates, in order to establish the minimal inhibitory concentration (MIC). In this purpose, serial two-fold dilutions of the compounds ranging between 5000 and 4.8 µg/mL were performed in a 200 µL volume of broth and each well was seeded with 50 µL of microbial inoculum. Sterility control (wells containing only culture medium) and culture controls (wells containing culture medium seeded with the microbial inoculum) were used. The influence of the DMSO solvent was also quantified in a series of wells containing DMSO [36], diluted accordingly with the dilution scheme used for the compounds and for the positive controls.

S. aureus ATCC 25923 [2] = assay: MIC by liquid medium microdilution; format: cell-based; settings: Staphylococcus aureus
Method: as §1, §2

S. aureus ATCC 25923 [3] = assay: Qualitative antimicrobial screening, adapted disk diffusion; format: cell-based, Staphylococcus aureus; design: zone of inhibition: dose or concentration left out as unconfirmed; settings: for zone of inhibition at 5000 µg/mL (stock): ATCC25923, read-out: growth inhibition diameter
Method: as §1

B. subtilis ATCC 6633 [4] = assay: Antibiofilm activity (MBEC), micro-titer method on plastic inert substratum; format: cell-based, Bacillus subtilis; settings: B. subtilis ATCC 6633 biofilm on plastic substratum
Method: (§3) The assessment of the new compounds influence on the microbial ability to colonize the plastic inert substratum was performed by the micro-titer method, following previously described protocols. The absorbance at 490 nm was measured with an LB 911 ELISA reader (Apollo, Berthold Technologies GmbH & Co. KG, Bad Wildbad, Germany). All biological experiments were performed in triplicates.

K. pneumoniae 1771 = assay: Qualitative antimicrobial screening, adapted disk diffusion; format: cell-based, Klebsiella pneumoniae; design: zone of inhibition: dose or concentration left out as unconfirmed; settings: for zone of inhibition at 5000 µg/mL (stock): Klebsiella pneumoniae, K. pneumoniae 1771, adapted diffusion assay, read-out: growth inhibition diameter
E. coli ATCC 25922 [5] = assay: as above; format: cell-based, Escherichia coli; design: zone of inhibition: dose or concentration left out as unconfirmed; settings: for zone of inhibition at 5000 µg/mL (stock): ATCC25922, read-out: growth inhibition diameter
Method: as §1

P. aeruginosa ATCC 27853 = assay: as above; format: cell-based; design: zone of inhibition: dose or concentration left out as unconfirmed; settings: Pseudomonas aeruginosa; for zone of inhibition at 5000 µg/mL (stock): ATCC27853, P. aeruginosa ATCC 27853, adapted diffusion assay, read-out: growth inhibition diameter
[6] = Cytotoxicity, CellTiter Assay; format: cell-based; settings: human, HCT8 cells, 400–10 µg/mL tested
Method: (§4) For the in vitro assessment of the cytotoxic effect, the HCT8 cells and the CellTiter Assay kit (Promega, Madison, WI, USA) and Annexin V-FITC Apoptosis Detection Kit I (BD Bioscience Pharmingen, Franklin Lakes, NJ, USA) were used. Briefly, for CellTiter Assay, 1 × 10^4 cells/well were plated in 96 well plate and 24 h after, were treated with the new compound at final concentration between 400 µg/mL–10 µg/mL. The viability was evaluated after 24 h by adding CellTiter aqueous solution and reading to spectrophotometer according to the manufacturer indications. The IC50 were calculated from the percent of viability reported to untreated cells using on line tools https://www.aatbio.com/tools/ic50-calculator. For Annexin V-FITC Apoptosis Detection Kit I, 5 × 10^5 cells were seeded in 3.5 cm diameter Petri dish and treated with 100 µg/mL compounds solution for 24 h. The total cells were resuspended in 100 µL of binding buffer, and stained with 5 µL Annexin V-FITC and 5 µL propidium iodide for 10 min in dark. At least 10,000 events from each sample were acquired using a flow cytometer (Beckman Coulter, Indianapolis, IN, USA). The percentage of cells affected by the treatment was determined by subtracting the percentage of apoptotic/necrotic cells in the untreated population from percentage of apoptotic cells in the treated population.

[7] = Annexin V-FITC/propidium iodide apoptosis analysis by flow cytometry; format: cell-based; settings: human, HCT8 cells, Annexin V-FITC/PI, read-out: viable cells (Q4)
Method: as §4

C. albicans ATCC 10231 [8] = assay: Qualitative antimicrobial screening, adapted disk diffusion; format: cell-based, Candida albicans; design: zone of inhibition: dose or concentration left out as unconfirmed; settings: for zone of inhibition at 5000 µg/mL (stock): ATCC10231, read-out: growth inhibition diameter
Method: as §1

S. aureus ATCC 25923 [9] = assay: Antibiofilm activity (MBEC), micro-titer method on plastic inert substratum; format: cell-based, Staphylococcus aureus; settings: S. aureus ATCC 25923 biofilm on plastic substratum
Method: as §3

B. subtilis ATCC 6633 [10] = assay: Qualitative antimicrobial screening, adapted disk diffusion; format: cell-based, Bacillus subtilis; design: zone of inhibition: dose or concentration left out as unconfirmed; settings: for growth inhibition diameter / zone of inhibition at 5000 µg/mL (stock): B. subtilis ATCC 6633, adapted diffusion assay; for zone of inhibition at 5000 µg/mL (stock): ATCC6633, read-out: growth inhibition diameter
Method: as §1

C. albicans ATCC 10231 [11] = assay: MIC by liquid medium microdilution; format: cell-based; settings: Candida albicans
Method: as §1, §2

C. albicans ATCC 10231 [12] = assay: Antibiofilm activity (MBEC), micro-titer method on plastic inert substratum; format: cell-based, Candida albicans; settings: C. albicans ATCC 10231 biofilm on plastic substratum
Method: as §3

B. subtilis ATCC 6633 [13] = assay: MIC by liquid medium microdilution; format: cell-based, Bacillus subtilis; settings: B. subtilis ATCC 6633, 24 h at 37 °C
Method: as §1, §2

[14] = Staphylococcus aureus, S. aureus ATCC 25923, adapted diffusion assay
[15] = Escherichia coli, E. coli ATCC 25922, adapted diffusion assay
[16] = Candida albicans, C. albicans ATCC 10231, adapted diffusion assay

| Structure (SMILES) | zone of inhibition at 5000 µg/mL (stock) (S. aureus ATCC 25923 [3]; [14]) [mm] | zone of inhibition at 5000 µg/mL (stock) (K. pneumoniae 1771) [mm] | zone of inhibition at 5000 µg/mL (stock) (E. coli ATCC 25922 [5]; [15]) [mm] | zone of inhibition at 5000 µg/mL (stock) (P. aeruginosa ATCC 27853) [mm] | zone of inhibition at 5000 µg/mL (stock) (C. albicans ATCC 10231 [8]; [16]) [mm] | zone of inhibition at 5000 µg/mL (stock) (B. subtilis ATCC 6633 [10]; Bacillus subtilis) [mm] | also measured |
| --- | --- | --- | --- | --- | --- | --- | --- |
| O=C(Nc1cccc(C(F)(F)F)c1)ON=C1c2ccccc2COc2ccccc21 [Compound 7f, 6,11-Dihydrodibenz[b,e]oxepin-11(6H)one O-(3-trifluoromethylphenyl-carbamoyl)oxime] | 8 | 0 | 10 | 0 | 12 | 11 | MIC (E. coli ATCC 25922 [1]; ATCC25922, E. coli ATCC 25922, 24 h at 37 °C, read-out: MIC): 78 µg/mL (≈ 189 µM); MIC (S. aureus ATCC 25923 [2]; ATCC25923, S. aureus ATCC 25923, 24 h at 37 °C, read-out: MIC): 4.8 µg/mL (≈ 11.6 µM); growth inhibition diameter (S. aureus ATCC 25923 [3]; S. aureus ATCC 25923, adapted diffusion assay): inhibited the microbial growth; MBEC (B. subtilis ATCC 6633 [4]): 39 µg/mL; growth inhibition diameter (E. coli ATCC 25922 [5]; E. coli ATCC 25922, adapted diffusion assay): inhibited the microbial growth; IC50 at 24 h [6]: 54.3 µg/mL (≈ 132 µM); viability at 24 h, 100 µg/mL [7]: 14.8%; growth inhibition diameter (C. albicans ATCC 10231 [8]; C. albicans ATCC 10231, adapted diffusion assay): inhibited the microbial growth; MBEC (S. aureus ATCC 25923 [9]): 39 µg/mL; growth inhibition diameter (B. subtilis ATCC 6633 [10]): inhibited the microbial growth |
| CCc1ccc2c(c1)C(=NOC(=O)Nc1ccc(F)cc1)c1ccccc1CO2 [Compound 7i, 2-Ethyl-6,11-dihydro-dibenz[b,e]oxepin-11(6H)one O-(4-fluorophenyl-carbamoyl)oxime] | 0 | 0 | 0 | 0 | 0 | 0 |  |
| CCc1ccc2c(c1)C(=NOC(=O)Nc1ccccc1)c1ccccc1CO2 [Compound 7h, 2-Ethyl-6,11-dihydro-dibenz[b,e]oxepin-11(6H)one O-(phenyl-carbamoyl)oxime] | 0 | 0 | 0 | 0 | 0 | 0 |  |
| Cc1ccc2c(c1)C(=NOC(=O)Nc1ccc(Cl)cc1Cl)c1ccccc1CO2 [Compound 7g, 2-Methyl-6,11-dihydro-dibenz[b,e]oxepin-11(6H)one O-(2,4-dichlorophenyl-carbamoyl)oxime] | 0 | 0 | 0 | 0 | 0 | 0 |  |
| O=C(Nc1ccc(Cl)cc1Cl)ON=C1c2ccccc2COc2ccccc21 [Compound 7e, 6,11-Dihydrodibenz[b,e]oxepin-11(6H)one O-(2,4-dichlorophenyl-carbamoyl)oxime] | 0 | 0 | 0 | 0 | 0 | 0 |  |
| CCc1ccc2c(c1)C(=NOC(=O)Nc1ccc(Cl)cc1Cl)c1ccccc1CO2 [Compound 7j, 2-Ethyl-6,11-dihydro-dibenz[b,e]oxepin-11(6H)one O-(2,4-dichlorophenyl-carbamoyl)oxime] | 0 | 0 | 0 | 0 | 0 | 0 |  |
| OC(Cn1cncn1)(Cn1cncn1)c1ccc(F)cc1F [Fluconazole, fluconazole, reference compound] |  |  |  |  | 10 |  | MIC (C. albicans ATCC 10231 [11]; ATCC10231, C. albicans ATCC 10231, 24 h at 37 °C, read-out: MIC): 4.8 µg/mL (≈ 15.7 µM); MBEC (C. albicans ATCC 10231 [12]): 39 µg/mL |
| O=C(Nc1ccc(Cl)cc1)ON=C1c2ccccc2COc2ccccc21 [Compound 7d, 6,11-Dihydrodibenz[b,e]oxepin-11(6H)one O-(4-chlorophenyl-carbamoyl)oxime] | 0 | 0 | 0 | 0 | 0 | 0 |  |
| O=C(Nc1ccc(F)cc1)ON=C1c2ccccc2COc2ccccc21 [Compound 7b, 6,11-Dihydrodibenz[b,e]oxepin-11(6H)one O-(4-fluorophenyl-carbamoyl)oxime] |  |  |  |  |  |  | MIC (C. albicans ATCC 10231 [11]; ATCC10231, 24 h): > 5000 µg/mL; MIC (E. coli ATCC 25922 [1]; ATCC25922, 24 h): > 5000 µg/mL; MIC (S. aureus ATCC 25923 [2]; ATCC25923, 24 h): > 5000 µg/mL; zone of inhibition (S. aureus ATCC 25923 [3]; Staphylococcus aureus, ATCC25923, read-out: growth inhibition diameter): 0 mm; zone of inhibition (K. pneumoniae 1771; Klebsiella pneumoniae, 1771, read-out: growth inhibition diameter): 0 mm; zone of inhibition (E. coli ATCC 25922 [5]; Escherichia coli, ATCC25922, read-out: growth inhibition diameter): 0 mm; zone of inhibition (P. aeruginosa ATCC 27853; ATCC27853, read-out: growth inhibition diameter): 0 mm; MIC (B. subtilis ATCC 6633 [13]): 4.8 µg/mL (≈ 13.2 µM); MIC (B. subtilis ATCC 6633 [13]; Bacillus subtilis, ATCC6633, 24 h): 4.8 to 39 µg/mL (≈ 13.2 to 108 µM); IC50 at 24 h [6]: 252 µg/mL (≈ 695 µM); viability at 24 h, 100 µg/mL [7]: 84.3%; zone of inhibition (C. albicans ATCC 10231 [8]; Candida albicans, ATCC10231, read-out: growth inhibition diameter): 0 mm; MBEC (S. aureus ATCC 25923 [9]): 19.5 µg/mL; growth inhibition diameter (B. subtilis ATCC 6633 [10]): active exclusively on B. subtilis; zone of inhibition (B. subtilis ATCC 6633 [10]; Bacillus subtilis, ATCC6633, read-out: growth inhibition diameter): 7 mm |
